Results on ten compounds are retold here after US9561237B1, “Bis-(triethylphosphine)platinum(II) complexes with thiones as anti cancer agents” (KING FAHD UNIVERSITY OF PETROLEUM AND MINERALS, priority 2016, dated 2017).

Assay type in all cases: cell-based
In series [1] the test system is HeLa (human cervical cancer) cell line. In words: In vitro cytotoxic activity, MTT assay, HeLa. To be noted: for Cytotoxic activity in words (comparison): 6.2 μM to 50 μM; for IC50: 50, 25, 12.5 and 6.25 μM, three independent experiments, read-out: IC50 ± SEM (50% cell growth inhibition), HeLa. As to the method:
(§1) A Pt(II) metal precursor, cisplatin, carboplatin and seven synthesized complexes (1)-(7) were evaluated for their in-vitro cytotoxic activity against HeLa (human cervical cancer), A549 (human lung cancer), MCF-7 (human breast cancer) and HTC15 (human colon cancer) cell lines.
(§2) The cells were seeded at 4×10^3 cells/well in 100 μL DMEM (Dulbecco's Modified Eagle's Medium) containing 10%. FBS (Fetal Bovine Serum) in 96-well tissue culture plate and incubated for 72 h at 37° C., 5% CO2 in air and 90% relative humidity in CO2 incubator. […] The medium of wells was discarded and 100 μL DMEM containing MTT (3-(4,5-dimethylthiazol-2-Yl)-2,5-diphenyltetrazolium bromide) (5 mg/mL) was added to the wells and incubated in CO2 incubator at 37° C. in dark for 4 h. After incubation, a purple colored formazan (artificial chromogenic dye, product of the reduction of water insoluble tetrazolium salts e.g., MMT by dehydrogenases and reductases) in the cells is produced and appeared as dark crystals in the bottom of the wells. The medium of culture was discarded from each well carefully to avoid disruption of monolayer and 100 μL of dimethylsufoxide (DMSO) was added in each well. The solution was thoroughly mixed in the wells to dissolve the formazan crystals which ultimately result into a purple solution. The absorbance of the 96-wells plate was taken at 570 nm with Labsystems Multiskan EX-Enzyme-linked immunosorbent assay (EX-ELISA) reader against a reagent blank. The IC50 values were calculated from three independent experiments by generating an equation of logarithmic trendline of percentage cell viability against concentration of compounds in Microsoft Excel.
(§3) Preliminary anti-cancer activity studies were carried out on seven synthesized Pt(II) complexes (1)-(7), Pt(II) precursor, cisplatin and carboplatin against four cancer cell lines HeLa, A549, HCT15 and MCF-7 (human cancer cell lines) and an MTT assay was used to determine their dose-dependent cytotoxicity after 72 h [U. Bierbach, T. W. Hambly, N. Farrell, Inorg.
(§4) The MTT assay was performed in three independent experiments, each in triplicate. The cancer cell lines used are HeLa (human cervical cancer), A549 (human lung cancer), MCF-7 (human breast cancer) and HCT15 (human colon cancer) cell lines.

In series [2] the test system is A549 (human lung cancer) cell line. In words: In vitro cytotoxic activity, MTT assay, A549. To be noted: for Cytotoxic activity in words (comparison): 6.2 μM to 50 μM; for IC50: 50, 25, 12.5 and 6.25 μM, three independent experiments, read-out: IC50 ± SEM (50% cell growth inhibition), A549. As to the method: as §1, §2, §3, §4
Background: Tetrazolium dyes change colour on reduction, which living cells bring about.

Series [3] has as its system MCF-7 (human breast cancer) cell line. The series can be described thus: In vitro cytotoxic activity, MTT assay, MCF-7. To be noted: for IC50: MCF7, 50, 25, 12.5 and 6.25 μM, three independent experiments, read-out: IC50 ± SEM (50% cell growth inhibition), MCF7; for Cytotoxic activity in words (comparison): MCF-7, 6.2 μM to 50 μM. As to the method: as §1, §2, §3, §4

Series [4] concerns HCT15 (human colon cancer) cell line. In words: In vitro cytotoxic activity, MTT assay, HCT15. Particulars: for Cytotoxic activity in words (comparison): 6.2 μM to 50 μM; for IC50: 50, 25, 12.5 and 6.25 μM, three independent experiments, read-out: IC50 ± SEM (50% cell growth inhibition), HCT15. The procedure: as §1, §2, §3, §4

Turning to `CC[PH](CC)(CC)[Pt+2]([SH]=C1N(C)CCN1C)([SH]=C1N(C)CCN1C)[PH](CC)(CC)CC.[Cl-].[Cl-]` [Complex (3), cis-bis(triethylphosphine)di(1,3-dimethylimidazolidine-2-thione)platinum(II)], the “Cytotoxic activity in words (comparison)” value in series [1], in series [2], in series [3] and in series [4] was “most effective against all cancer cell lines” throughout. In addition, the IC50 (in general, the midpoint of a concentration-inhibition curve) is 1.5 ± 0.21 µM in series [1], 2.37 ± 0.29 µM in series [2], 3.77 ± 0.61 µM in series [3] and 4.23 ± 0.73 µM in series [4].
As for `CCP(CC)CC.CCP(CC)CC.[Cl][Pt][Cl]` [Pt(II) precursor, cis-Bis(triethylphosphine)platinum(II)chloride, reference compound], the IC50 in series [1] was found to be 45.8 ± 2.33 µM; in series [2], 55.6 ± 2.53 µM; in series [3], 59.8 ± 2.15 µM; in series [4], 39.1 ± 1.98 µM.
For “cis-bis(triethylphosphine)di(tetrahydropyrimidine-2(1H)-thione)platinum(II) [Complex (5)]”, in that order: 2.23 ± 0.52 µM, 4.5 ± 0.78 µM, 4.73 ± 0.95 µM and 6.87 ± 1.07 µM.
In the same order, the values of “cis-bis(triethylphosphine)di(1-methylimidazolidine-2-thione)platinum(II) [Complex (2)]” are 1.83 ± 0.26 µM, 3.93 ± 0.47 µM, 2.63 ± 0.88 µM and 8.6 ± 0.93 µM.
For `N.N.O=C([O-])C1(C(=O)[O-])CCC1.[Pt+2]` [Carboplatin, carboplatin, reference compound], in that order: 56.5 ± 2.23 µM, 71.2 ± 2.84 µM, 55.6 ± 2.53 µM and 63.9 ± 2.25 µM.
Regarding `CC[PH](CC)(CC)[Pt+2]([SH]=C1NCCCCN1)([SH]=C1NCCCCN1)[PH](CC)(CC)CC.[Cl-].[Cl-]` [Complex (7), cis-bis(triethylphosphine)di(1,3-diazepane-thione)platinum(II)], the IC50 in series [1] was 17.3 ± 1.34 µM; in series [2] it was 27.7 ± 1.48 µM; in series [3], 22.3 ± 1.35 µM; in series [4] it was 37.1 ± 1.86 µM.
Consider `CCN1CCN(CC)C1=[SH][Pt+2]([SH]=C1N(CC)CCN1CC)([PH](CC)(CC)CC)[PH](CC)(CC)CC.[Cl-].[Cl-]` [Complex (4), cis-bis(triethylphosphine)di(1,3-diethylimidazolidine-2-thione)platinum(II)], for which the IC50 in series [1] was found to be 9.9 ± 1.65 µM; in series [2], 12.6 ± 1.09 µM; in series [3], 13.5 ± 1.36 µM; in series [4], 16.1 ± 1.13 µM.
For `N.N.[Cl][Pt][Cl]` [Cisplatin, cis-diaminedichlorido platinum(II) complex cis-[(NH3)2PtCl2], reference compound], in that order: 19.2 ± 1.81 µM, 41.7 ± 1.17 µM, 22.4 ± 1.37 µM and 29.7 ± 2.35 µM.
Regarding `CCN1CCCNC1=[SH][Pt+2]([SH]=C1NCCCN1CC)([PH](CC)(CC)CC)[PH](CC)(CC)CC.[Cl-].[Cl-]` [Complex (6)], the “Cytotoxic activity in words (comparison)” value in series [1] was “better than cisplatin and carboplatin”; in series [2], “better than cisplatin and carboplatin”; in series [3], “highest activity”; in series [4], “better than cisplatin and carboplatin”. Besides, the 50% inhibitory concentration (IC50) in series [1] stood at 1.83 ± 0.35 µM; in series [2] it was 3.6 ± 0.72 µM; in series [3] it was 1.23 ± 0.34 µM; in series [4] it was 5.7 ± 0.91 µM.
For `CC[PH](CC)(CC)[Pt+2]([SH]=C1NCCN1)([SH]=C1NCCN1)[PH](CC)(CC)CC.[Cl-].[Cl-]` [Complex (1), cis-bis(triethylphosphine)di(imidazolidine-2-thione)platinum(II)], the half-maximal inhibitory concentration (IC50) in series [1] stood at 1.4 ± 0.29 µM; in series [2], 3.5 ± 0.74 µM; in series [3], 4.67 ± 1.05 µM; in series [4], 7.03 ± 1.04 µM.
